Read-outs that look alike come from different tables or passages of the source.

The record followed here is paper PMC12102759 (Protein Science : A Publication of the Protein Society, 2025).

This assay relates to PABPC1 PABC. The assay is classed as binding, human. Particulars: DMS-BM library, bait PABPC1 PABC, row aa = residue at this position; for DMS-derived PSSM value, position L2: L = wild type.
Setting [1] is: prey ATXN2, peptide TLNPNAKEFNPRSFSQ, A = wild type.
Setting [2] is: prey ATXN2, TLNPNAKEFNPRSF(averaged) over the two overlapping peptides, N = wild type.
Setting [3] is: prey ATXN2, peptide TLNPNAKEFNPRSFSQ, S = wild type.
Where [4] appears, read: prey ATXN2, peptide KSTLNPNAKEFNPRSF, T = wild type.
The mark [5] stands for this setting: prey ATXN2, TLNPNAKEFNPRSF(averaged) over the two overlapping peptides, F = wild type.
The mark [6] stands for this setting: prey ATXN2, peptide KSTLNPNAKEFNPRSF, S = wild type.
[7] abbreviates: prey ATXN2, TLNPNAKEFNPRSF(averaged) over the two overlapping peptides, K = wild type.
Setting [8] is: prey ATXN2, peptide TLNPNAKEFNPRSFSQ, E = wild type.
[9] abbreviates: prey ATXN2, TLNPNAKEFNPRSF(averaged) over the two overlapping peptides, P = wild type.
Where [10] appears, read: prey ATXN2, peptide KSTLNPNAKEFNPRSF, P = wild type.
Setting [11] is: prey ATXN2, peptide KSTLNPNAKEFNPRSF, F = wild type.
Where [12] appears, read: prey ATXN2, peptide TLNPNAKEFNPRSFSQ, P = wild type.
The mark [13] stands for this setting: prey ATXN2, peptide TLNPNAKEFNPRSFSQ
The mark [14] stands for this setting: prey ATXN2, peptide TLNPNAKEFNPRSFSQ, T = wild type.
[15] abbreviates: prey ATXN2, peptide KSTLNPNAKEFNPRSF, N = wild type.
The mark [16] stands for this setting: prey ATXN2, peptide TLNPNAKEFNPRSFSQ, F = wild type.
[17] abbreviates: prey ATXN2, peptide KSTLNPNAKEFNPRSF, E = wild type.

Take TLNPNAKEFNPRSFSQ A6I (TLNPNIKEFNPRSFSQ): the “DMS-derived PSSM value, position A6” value under setting [1] was 0.03549. For the substance “TLNPNAKEFNPRSF(averaged) N10F (TLNPNAKEFFPRSF)”, under setting [2], the “DMS-derived PSSM value (averaged), position N10” value is 0.02798. For the substance “TLNPNAKEFNPRSFSQ S13R (TLNPNAKEFNPRRFSQ)”, the “DMS-derived PSSM value, position S13” value under setting [3] is given as 0.001962.

Take “TLNPNAKEFNPRSF(averaged) N3H (TLHPNAKEFNPRSF)”: the “DMS-derived PSSM value (averaged), position N3” value under setting [2] stood at 0.

For the substance KSTLNPNAKEFNPRSF T3S (KSSLNPNAKEFNPRSF), the “DMS-derived PSSM value, position T3” value under setting [4] turned out to be 0. Take “TLNPNAKEFNPRSF(averaged) F9I (TLNPNAKEINPRSF)”: the “DMS-derived PSSM value (averaged), position F9” value under setting [5] is listed as 0. Take “KSTLNPNAKEFNPRSF S15N (KSTLNPNAKEFNPRNF)”: the “DMS-derived PSSM value, position S15” value under setting [6] is listed as 0.1002. As to “TLNPNAKEFNPRSF(averaged) K7E (TLNPNAEEFNPRSF)”, under setting [7], the “DMS-derived PSSM value (averaged), position K7” value is given as 0.01581. TLNPNAKEFNPRSFSQ E8Q (TLNPNAKQFNPRSFSQ): the “DMS-derived PSSM value, position E8” value under setting [8] came out at 0.04954.

Regarding “TLNPNAKEFNPRSFSQ S15A (TLNPNAKEFNPRSFAQ)”, the “DMS-derived PSSM value, position S15” value under setting [3] is 0.02541. With “TLNPNAKEFNPRSF(averaged) A6W (TLNPNWKEFNPRSF)”, the “DMS-derived PSSM value (averaged), position A6” value (prey ATXN2, TLNPNAKEFNPRSF(averaged) over the two overlapping peptides, A = wild type) was found to be 0.

Turning to “TLNPNAKEFNPRSF(averaged) P11K (TLNPNAKEFNKRSF)”, under setting [9], the “DMS-derived PSSM value (averaged), position P11” value turned out to be 0. As to “KSTLNPNAKEFNPRSF R14Q (KSTLNPNAKEFNPQSF)”, the “DMS-derived PSSM value, position R14” value (prey ATXN2, peptide KSTLNPNAKEFNPRSF, R = wild type) stood at 0.09624. Regarding “KSTLNPNAKEFNPRSF P13G (KSTLNPNAKEFNGRSF)”, the “DMS-derived PSSM value, position P13” value under setting [10] is reported as 0.05991. KSTLNPNAKEFNPRSF T3F (KSFLNPNAKEFNPRSF): the “DMS-derived PSSM value, position T3” value under setting [4] is given as 0.07157.

TLNPNAKEFNPRSFSQ A6S (TLNPNSKEFNPRSFSQ): the “DMS-derived PSSM value, position A6” value under setting [1] is on record as 0.08307. Take “TLNPNAKEFNPRSF(averaged) K7L (TLNPNALEFNPRSF)”: the “DMS-derived PSSM value (averaged), position K7” value under setting [7] came out at 0.03789.

Take “KSTLNPNAKEFNPRSF F11Y (KSTLNPNAKEYNPRSF)”: the “DMS-derived PSSM value, position F11” value under setting [11] was found to be 0.3016. For the substance “KSTLNPNAKEFNPRSF F16V (KSTLNPNAKEFNPRSV)”, the “DMS-derived PSSM value, position F16” value under setting [11] is recorded as 0.175.

Regarding “TLNPNAKEFNPRSFSQ P11A (TLNPNAKEFNARSFSQ)”, under setting [12], the “DMS-derived PSSM value, position P11” value is on record as 0.0003099. Take “TLNPNAKEFNPRSF(averaged) K7M (TLNPNAMEFNPRSF)”: the “DMS-derived PSSM value (averaged), position K7” value under setting [7] worked out at 0.05548. For the substance TLNPNAKEFNPRSFSQ L2I (TINPNAKEFNPRSFSQ), under setting [13], the “DMS-derived PSSM value, position L2” value is 0.001607. Take KSTLNPNAKEFNPRSF K9W (KSTLNPNAWEFNPRSF): the “DMS-derived PSSM value, position K9” value (prey ATXN2, peptide KSTLNPNAKEFNPRSF, K = wild type) is reported as 0.002107. For the substance “TLNPNAKEFNPRSF(averaged) F14T (TLNPNAKEFNPRST)”, the “DMS-derived PSSM value (averaged), position F14” value under setting [5] is 0.01392. With KSTLNPNAKEFNPRSF P6G (KSTLNGNAKEFNPRSF), the “DMS-derived PSSM value, position P6” value under setting [10] is recorded as 0.01358. As to “KSTLNPNAKEFNPRSF F11Q (KSTLNPNAKEQNPRSF)”, the “DMS-derived PSSM value, position F11” value under setting [11] is 0. Take TLNPNAKEFNPRSFSQ T1G (GLNPNAKEFNPRSFSQ): the “DMS-derived PSSM value, position T1” value under setting [14] is 0.1015. For the substance “TLNPNAKEFNPRSF(averaged) F14N (TLNPNAKEFNPRSN)”, under setting [5], the “DMS-derived PSSM value (averaged), position F14” value was found to be 0.05683. As to KSTLNPNAKEFNPRSF N7E (KSTLNPEAKEFNPRSF), the “DMS-derived PSSM value, position N7” value under setting [15] was found to be 0.03193.

Turning to TLNPNAKEFNPRSFSQ A6G (TLNPNGKEFNPRSFSQ), under setting [1], the “DMS-derived PSSM value, position A6” value is listed as 0. Consider KSTLNPNAKEFNPRSF T3I (KSILNPNAKEFNPRSF), for which the “DMS-derived PSSM value, position T3” value under setting [4] stood at 0.1667. Take “TLNPNAKEFNPRSFSQ F14H (TLNPNAKEFNPRSHSQ)”: the “DMS-derived PSSM value, position F14” value under setting [16] is 0.09586. Turning to TLNPNAKEFNPRSFSQ L2G (TGNPNAKEFNPRSFSQ), under setting [13], the “DMS-derived PSSM value, position L2” value stood at 0. As to TLNPNAKEFNPRSFSQ T1D (DLNPNAKEFNPRSFSQ), under setting [14], the “DMS-derived PSSM value, position T1” value is reported as 0.106. In the case of TLNPNAKEFNPRSFSQ A6Y (TLNPNYKEFNPRSFSQ), the “DMS-derived PSSM value, position A6” value under setting [1] is reported as 0. Take TLNPNAKEFNPRSFSQ F9K (TLNPNAKEKNPRSFSQ): the “DMS-derived PSSM value, position F9” value under setting [16] was determined as 0. Turning to TLNPNAKEFNPRSFSQ A6Q (TLNPNQKEFNPRSFSQ), under setting [1], the “DMS-derived PSSM value, position A6” value came out at 0.

Take KSTLNPNAKEFNPRSF S2L (KLTLNPNAKEFNPRSF): under setting [6], the “DMS-derived PSSM value, position S2” value was found to be 0.006151. On to TLNPNAKEFNPRSFSQ P4W (TLNWNAKEFNPRSFSQ), for which, under setting [12], the “DMS-derived PSSM value, position P4” value turned out to be 0. Regarding TLNPNAKEFNPRSFSQ F9V (TLNPNAKEVNPRSFSQ), under setting [16], the “DMS-derived PSSM value, position F9” value was 0.0008789.

In the case of “KSTLNPNAKEFNPRSF N12K (KSTLNPNAKEFKPRSF)”, the “DMS-derived PSSM value, position N12” value under setting [15] is listed as 0.009595. TLNPNAKEFNPRSFSQ N3P (TLPPNAKEFNPRSFSQ): the “DMS-derived PSSM value, position N3” value (prey ATXN2, peptide TLNPNAKEFNPRSFSQ, N = wild type) stood at 0. On to KSTLNPNAKEFNPRSF N5D (KSTLDPNAKEFNPRSF), for which the “DMS-derived PSSM value, position N5” value under setting [15] was 0. Turning to “TLNPNAKEFNPRSF(averaged) E8R (TLNPNAKRFNPRSF)”, where the note is “prey ATXN2, TLNPNAKEFNPRSF(averaged) over the two overlapping peptides, E = wild type”, the “DMS-derived PSSM value (averaged), position E8” value came to 0. TLNPNAKEFNPRSFSQ E8S (TLNPNAKSFNPRSFSQ): the “DMS-derived PSSM value, position E8” value under setting [8] worked out at 0.09805.

“KSTLNPNAKEFNPRSF N12Y (KSTLNPNAKEFYPRSF)”: under setting [15], the “DMS-derived PSSM value, position N12” value turned out to be 0.1026. As for “KSTLNPNAKEFNPRSF E10I (KSTLNPNAKIFNPRSF)”, the “DMS-derived PSSM value, position E10” value under setting [17] was 0. “TLNPNAKEFNPRSF(averaged) F9V (TLNPNAKEVNPRSF)”: the “DMS-derived PSSM value (averaged), position F9” value under setting [5] turned out to be 0.0004395. As for KSTLNPNAKEFNPRSF S2Q (KQTLNPNAKEFNPRSF), the “DMS-derived PSSM value, position S2” value under setting [6] amounted to 0.001157. For the substance “TLNPNAKEFNPRSF(averaged) P11L (TLNPNAKEFNLRSF)”, the “DMS-derived PSSM value (averaged), position P11” value under setting [9] was determined as 0.01529. For KSTLNPNAKEFNPRSF A8V (KSTLNPNVKEFNPRSF), where the note is “prey ATXN2, peptide KSTLNPNAKEFNPRSF, A = wild type”, the “DMS-derived PSSM value, position A8” value is recorded as 0.4196. “TLNPNAKEFNPRSF(averaged) T1K (KLNPNAKEFNPRSF)”: the “DMS-derived PSSM value (averaged), position T1” value (prey ATXN2, TLNPNAKEFNPRSF(averaged) over the two overlapping peptides, T = wild type) was 0.01914. As for “TLNPNAKEFNPRSF(averaged) F9S (TLNPNAKESNPRSF)”, the “DMS-derived PSSM value (averaged), position F9” value under setting [5] is given as 0.

“TLNPNAKEFNPRSF(averaged) F9R (TLNPNAKERNPRSF)”: the “DMS-derived PSSM value (averaged), position F9” value under setting [5] was 0. As for “TLNPNAKEFNPRSF(averaged) F14Q (TLNPNAKEFNPRSQ)”, the “DMS-derived PSSM value (averaged), position F14” value under setting [5] is listed as 0.06013. Consider KSTLNPNAKEFNPRSF N7H (KSTLNPHAKEFNPRSF), for which, under setting [15], the “DMS-derived PSSM value, position N7” value stood at 0.03167.

Regarding “KSTLNPNAKEFNPRSF E10G (KSTLNPNAKGFNPRSF)”, the “DMS-derived PSSM value, position E10” value under setting [17] amounted to 0. Turning to “TLNPNAKEFNPRSF(averaged) R12S (TLNPNAKEFNPSSF)”, for the setting “prey ATXN2, TLNPNAKEFNPRSF(averaged) over the two overlapping peptides, R = wild type”, the “DMS-derived PSSM value (averaged), position R12” value turned out to be 0.1293.

Regarding “TLNPNAKEFNPRSF(averaged) S13D (TLNPNAKEFNPRDF)”, the “DMS-derived PSSM value (averaged), position S13” value (prey ATXN2, TLNPNAKEFNPRSF(averaged) over the two overlapping peptides, S = wild type) came out at 0.02964. In the case of TLNPNAKEFNPRSFSQ A6H (TLNPNHKEFNPRSFSQ), the “DMS-derived PSSM value, position A6” value under setting [1] is given as 0. Turning to KSTLNPNAKEFNPRSF N7T (KSTLNPTAKEFNPRSF), under setting [15], the “DMS-derived PSSM value, position N7” value is recorded as 0.001519.
